Structures are written as SMILES. Where a SMILES comes first, the peptide text is derived from it. [ ]: non-standard residue; d: D form. NMeF = CN[C@@H](Cc1ccccc1)C(=O)O; dNMeL = CN[C@H](CC(C)C)C(=O)O; NMeA = CN[C@@H](C)C(=O)O; Nle = CCCC[C@H](N)C(=O)O; dNMeA = CN[C@H](C)C(=O)O

The conditions of the series: PAMPA. In general terms: The PAMPA barrier holds no transporters, so it reflects passive diffusion.
`CC(C)[C@@H]1C(=O)N[C@@H](Cc2ccccc2)C(=O)N2CCC[C@H]2C(=O)N(C)[C@H](Cc2ccccc2)C(=O)N[C@H](C)C(=O)N2CCC[C@H]2C(=O)N1C` (single isomer, unassigned) [Design D6.8.p2, *DPHE DALA PRO *DVAL PHE PRO]: the PAMPA_Papp_Avg was found to be 1.77e-06 cm/s, the PAMPA_R1 worked out at 1.92e-06 cm/s and the PAMPA_R3 stood at 1.94e-06 cm/s.
On the same counts, the results for `CC(C)C[C@H]1C(=O)N2CCC[C@@H]2C(=O)N[C@@H](Cc2ccccc2)C(=O)N2CCC[C@H]2C(=O)N[C@H](C(C)C)C(=O)N[C@H](Cc2ccccc2)C(=O)N1C` (single isomer, unassigned) [Design D6.9.p2, DVAL DPHE *LEU DPRO PHE PRO] are 6.77e-06 cm/s, 6.03e-06 cm/s and 8.48e-06 cm/s.
For `CC(C)C[C@H]1NC(=O)[C@H]2CCCN2C(=O)[C@@H]2CCCN2C(=O)[C@@H](Cc2ccccc2)NC(=O)[C@@H](C(C)C)NC(=O)[C@H](CC(C)C)N(C)C(=O)[C@@H](Cc2ccccc2)NC1=O` (single isomer, unassigned) [Design D7.7.p2, PRO DPRO DLEU DPHE *LEU DVAL DPHE] the same measures were 9.06e-06 cm/s, 7.93e-06 cm/s and 1.17e-05 cm/s.
Compound `CC[C@H](C)[C@@H]1NC(=O)[C@H](Cc2ccccc2)NC(=O)[C@H]2CCCN2C(=O)[C@H]([C@@H](C)CC)NC(=O)[C@H](C(C)C)NC(=O)[C@@H](C)NC(=O)[C@H]2CCCN2C1=O` (single isomer, unassigned) [Design D7.8.p2, VAL ILE DPRO PHE ILE DPRO DALA] gave a PAMPA_Papp_Avg of 4.92e-06 cm/s, a PAMPA_R1 of 4.52e-06 cm/s and a PAMPA_R3 of 5.64e-06 cm/s.
For `CC(C)C[C@H]1NC(=O)[C@@H]2CCCN2C(=O)[C@H]2CCCN2C(=O)[C@H](C(C)C)NC(=O)[C@@H](CC(C)C)NC(=O)[C@@H]2CCCN2C(=O)[C@H]2CCCN2C(=O)[C@H](C(C)C)NC1=O` (single isomer, unassigned) [Design D8.12.p2, DLEU VAL DPRO PRO DLEU VAL DPRO PRO] the same measures were 2.00E-07, 1.77E-07 and 2.25E-07.
For `CC(C)C[C@@H]1NC(=O)[C@@H](C(C)C)NC(=O)[C@H](CC(C)C)N(C)C(=O)[C@H]2CCCN2C(=O)[C@@H](C(C)C)NC(=O)[C@H]2CCCN2C(=O)[C@@H](C(C)C)NC(=O)[C@@H](Cc2ccccc2)N(C)C(=O)[C@H](CC(C)C)N(C)C1=O` (single isomer, unassigned) [Design D9.8.p1, *LEU DVAL LEU *LEU *DPHE DVAL DPRO DVAL DPRO] the same measures were 5.72E-06, 5.56E-06 and 6.18E-06.
`CC(C)C[C@@H]1NC(=O)[C@@H](C(C)C)NC(=O)[C@H](CC(C)C)N(C)C(=O)[C@H]2CCCN2C(=O)[C@@H](C(C)C)NC(=O)[C@H]2CCCN2C(=O)[C@@H](C(C)C)NC(=O)[C@@H](Cc2ccccc2)N(C)C(=O)[C@H](CC(C)C)N(C)C1=O` (single isomer, unassigned) [Design D9.8.p2, *LEU DVAL LEU *LEU *DPHE DVAL DPRO DVAL DPRO] yielded a PAMPA_Papp_Avg of 9.35E-07, a PAMPA_R1 of 1.16E-06 and a PAMPA_R3 of 8.61E-07.
Regarding `CC(C)C[C@@H]1C(=O)N(C)[C@@H](Cc2ccccc2)C(=O)N[C@@H](C(C)C)C(=O)N2CCC[C@H]2C(=O)NCC(=O)N2CCC[C@H]2C(=O)N(C)[C@H](CC(C)C)C(=O)N[C@@H](C(C)C)C(=O)N[C@H](CC(C)C)C(=O)N1C` (single isomer, unassigned) [Design D9.43.p1, *DLEU VAL DLEU *DLEU *PHE VAL PRO GLY PRO], the PAMPA_Papp_Avg is 9.46E-07, the PAMPA_R1 is recorded as 8.93E-07 and the PAMPA_R3 is 5.40E-07.
Turning to `CC(C)C[C@@H]1C(=O)N(C)[C@@H](Cc2ccccc2)C(=O)N[C@@H](C(C)C)C(=O)N2CCC[C@H]2C(=O)NCC(=O)N2CCC[C@H]2C(=O)N(C)[C@H](CC(C)C)C(=O)N[C@@H](C(C)C)C(=O)N[C@H](CC(C)C)C(=O)N1C` (single isomer, unassigned) [Design D9.43.p2, *DLEU VAL DLEU *DLEU *PHE VAL PRO GLY PRO], the PAMPA_Papp_Avg is listed as 3.30E-06, the PAMPA_R1 stood at 3.34E-06 and the PAMPA_R3 is recorded as 3.77E-06.
For `CC[C@@H](C)[C@H]1NC(=O)[C@H](CC(C)C)N(C)C(=O)[C@H]2CCCN2C(=O)[C@H](CC(C)C)NC(=O)[C@H](Cc2ccccc2)N(C)C(=O)CN(C)C(=O)[C@@H](C(C)C)NC(=O)[C@H](C)NC(=O)[C@H]2CCCN2C(=O)[C@@H]2CCCN2C1=O` (single isomer, unassigned) [Design D10.58.p2, *GLY *PHE LEU DPRO *LEU DILE PRO DPRO ALA DVAL] the same measures were 3.23E-07, 3.15E-07 and 2.44E-07.
For `CC[C@@H](C)[C@H]1NC(=O)[C@H](CC(C)C)N(C)C(=O)[C@H]2CCCN2C(=O)[C@H](CC(C)C)NC(=O)[C@@H](Cc2ccccc2)N(C)C(=O)[C@H](CC(C)C)N(C)C(=O)[C@@H](C(C)C)NC(=O)[C@H](C)NC(=O)[C@H]2CCCN2C(=O)[C@@H]2CCCN2C1=O` (single isomer, unassigned) [Design D10.60.p2, *LEU *DPHE LEU DPRO *LEU DILE PRO DPRO ALA DVAL] the same measures were 1.17E-06, 1.49E-06 and 1.62E-06.
For `CC[C@@H](C)[C@H]1NC(=O)[C@@H](CC(C)C)N(C)C(=O)[C@@H]2CCCN2C(=O)[C@H]([C@@H](C)CC)NC(=O)[C@H]([C@@H](C)CC)N(C)C(=O)[C@@H](CC(C)C)NC(=O)[C@@H](C(C)C)N(C)C(=O)[C@H]2CCCN2C(=O)[C@@H](C(C)C)NC(=O)[C@@H]2CCCN2C(=O)[C@H]([C@@H](C)CC)NC1=O` (single isomer, unassigned) [Design D11.23.p1, DVAL DPRO *DVAL DLEU *ILE ILE PRO *DLEU DILE ILE PRO] the same measures were 2.70E-06, 1.22E-06 and 5.23E-06.
Consider `CC[C@@H](C)[C@H]1NC(=O)[C@@H](CC(C)C)N(C)C(=O)[C@@H]2CCCN2C(=O)[C@H]([C@@H](C)CC)NC(=O)[C@H]([C@@H](C)CC)N(C)C(=O)[C@@H](CC(C)C)NC(=O)[C@@H](C(C)C)N(C)C(=O)[C@H]2CCCN2C(=O)[C@@H](C(C)C)NC(=O)[C@@H]2CCCN2C(=O)[C@H]([C@@H](C)CC)NC1=O` (single isomer, unassigned) [Design D11.23.p2, DVAL DPRO *DVAL DLEU *ILE ILE PRO *DLEU DILE ILE PRO], for which the PAMPA_Papp_Avg was determined as 9.83E-07, the PAMPA_R1 was found to be 1.49E-06 and the PAMPA_R3 is given as 4.80E-07.
For `CC[C@H](C)[C@@H]1NC(=O)[C@@H](CC(C)C)NC(=O)[C@H](CC(C)C)NC(=O)[C@H]2CCCN2C(=O)[C@@H]2CCCN2C(=O)[C@H]([C@@H](C)CC)NC(=O)[C@@H](CC(C)C)N(C)C(=O)[C@@H](CC(C)C)N(C)C1=O` [Design D8.9, ILE *DLEU *DLEU ILE PRO DPRO LEU DLEU] (cyclo(IP[dP]L[dL]I[dNMeL][dNMeL])) the same measures were “BQL”, “BQL” and “BQL”.
For `CC[C@@H](C)[C@H]1NC(=O)[C@H]2CCCN2C(=O)[C@@H]2CCCN2C(=O)[C@H](C(C)C)NC(=O)[C@@H](C(C)C)NC(=O)[C@@H]2CCCN2C(=O)[C@H]2CCCN2C(=O)[C@@H](C)NC1=O` [Design D8.11, DALA DPRO PRO DVAL VAL PRO DPRO DILE] (cyclo([dV]VP[dP][dI][dA][dP]P)) the same measures were “BQL”, “BQL” and “BQL”.
On the same counts, the results for `CC[C@H](C)[C@@H]1NC(=O)[C@@H]2CCCN2C(=O)[C@H]2CCCN2C(=O)[C@@H](CC(C)C)NC(=O)[C@@H](CC(C)C)N(C)C(=O)[C@@H]2CCCN2C(=O)[C@H](Cc2ccccc2)N(C)C(=O)[C@@H](Cc2ccc(O)cc2)NC1=O` [Design D8.13, PRO ILE DTYR *PHE PRO *DLEU DLEU DPRO] (cyclo(I[dY][NMeF]P[dNMeL][dL][dP]P)) are “BQL”, “BQL” and “BQL”.
Take `CC[C@@H](C)[C@H]1NC(=O)[C@@H]2CCCN2C(=O)[C@H]2CCCN2C(=O)[C@@H](CC(C)C)NC(=O)[C@@H](C)N(C)C(=O)[C@H]2CCCN2C(=O)[C@H]2CCCN2C(=O)[C@H](C(C)C)NC1=O` [Design D8.24, DPRO PRO DILE VAL DPRO DPRO *DALA DLEU] (cyclo([dI]V[dP][dP][dNMeA][dL][dP]P)): the PAMPA_Papp_Avg result was “BQL”, the PAMPA_R1 entry was “BQL” and the PAMPA_R3 result is on record as “BQL”.
Consider `CCCC[C@@H]1NC(=O)[C@@H]2CCCN2C(=O)[C@@H](C(C)C)NC(=O)[C@@H](C)N(C)C(=O)[C@@H](CC(C)C)NC(=O)[C@@H](CC(C)C)NC(=O)[C@@H]2CCCN2C(=O)[C@H]2CCCN2C1=O` [Design D8.29, MET DPRO PRO DLEU DLEU *DALA DVAL PRO] (cyclo([dL][dL][dNMeA][dV]P[Nle][dP]P)), for which the PAMPA_Papp_Avg amounted to 3.60E-07, the PAMPA_R1 is 3.98E-07 and the PAMPA_R3 turned out to be 3.61E-07.
As to `CC[C@H](C)[C@@H]1NC(=O)[C@@H](C)N(C)C(=O)[C@@H](C)N(C)C(=O)[C@H](C(C)C)NC(=O)[C@H]2CCCN2C(=O)[C@@H]2CCCN2C(=O)[C@H](C(C)C)NC(=O)[C@H]2CCCN2C(=O)[C@@H]2CCCN2C1=O` [Design D9.12, PRO DPRO VAL PRO DPRO VAL *DALA *DALA ILE] (cyclo(IP[dP]VP[dP]V[dNMeA][dNMeA])), the PAMPA_Papp_Avg result was “BQL”, the PAMPA_R1 entry is given as “BQL” and the PAMPA_R3 entry is reported as “BQL”.
`CC(C)C[C@@H]1NC(=O)[C@H]2CCCN2C(=O)[C@@H]2CCCN2C(=O)[C@H](C)N(C)C(=O)[C@@H](C(C)C)NC(=O)[C@H](Cc2ccccc2)NC(=O)[C@H]2CCCN2C(=O)[C@@H]2CCCN2C(=O)[C@@H](CC(C)C)NC1=O` [Design D9.20, DLEU PRO DPRO PHE DVAL *ALA PRO DPRO LEU] (cyclo(F[dV][NMeA]P[dP]L[dL]P[dP])): the PAMPA_Papp_Avg result is recorded as “BQL”, the PAMPA_R1 result is listed as “BQL” and the PAMPA_R3 result is recorded as “BQL”.

Source of the values: article PMC9490236, “Accurate de novo design of membrane-traversing macrocycles” (Cell, 2022).
